Earlier results as cited in patent publication US10633688B2, “Systems and methods for predicting response to minoxidil for the treatment of androgenetic alopecia” (Follea International, priority 2010, dated 2020).

Columns and labels:
[1] = test system: female androgenetic alopecia; settings: females
SULT1A1 = target: T1, SULT1A1 (Homo sapiens, UniProt P50225)
T1 construct: Plucked hairs were collected from the border between bald and non-bald scalp and inspected visually for an intact bulb; from tissue; host or cells: plucked anagen scalp hair (hair bulb / follicle) of AGA patients
T1 sequence (P50225 whole entry): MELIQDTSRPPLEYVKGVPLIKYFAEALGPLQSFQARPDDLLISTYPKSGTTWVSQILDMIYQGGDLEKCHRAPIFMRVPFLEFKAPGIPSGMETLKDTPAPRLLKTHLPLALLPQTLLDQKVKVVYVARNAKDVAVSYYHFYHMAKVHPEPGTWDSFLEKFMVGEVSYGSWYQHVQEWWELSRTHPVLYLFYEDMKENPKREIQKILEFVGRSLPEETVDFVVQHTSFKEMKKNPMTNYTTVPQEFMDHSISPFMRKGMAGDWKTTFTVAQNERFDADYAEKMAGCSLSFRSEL

Row | SMILES | effectiveness in the treatment of female androgenetic alopecia [1] | effect on SULT1A1 sulfation of minoxidil (SULT1A1)
1 | CC(C)(C)NC(=O)[C@H]1CC[C@H]2[C@@H]3CC[C@H]4NC(=O)C=C[C@]4(C)[C@H]3CC[C@]12C [finasteride] | failed to show the effectiveness | 
2 | O=C(O)c1ccccc1O [salicylic acid] |  | lower SULT1A1 sulfation of minoxidil by competitive inhibition
